# Test results: patent publication US20180117176A1, “POROUS SILICON MICROPARTICLE-BASED CANCER VACCINES AND METHODS FOR POTENTIATING ANTI-TUMOR IMMUNITY” (The Methodist Hospital, priority 2015, published 2018)
# Where a SMILES comes first, the peptide text is derived from it. The star is where a group is joined. Cbz = O=C(OCc1ccccc1)*
# Assays:
# Assay type in all cases: cell-based, mouse
# [1] = tested on: Ifn-α4 and Ifn-β genes; assay: QPCR analysis of Ifn-α4 and Ifn-β gene expression in BMDCs; details: BMDCs pre-treated with chemical inhibitor
# Protocol: FIG. 3A, FIG. 3B, FIG. 3C, and FIG. 3D show PSM-induced IFN-I signaling in DCs. […] Cell culture medium served as the negative control. […] FIG. 3C is a QPCR analysis of mRNA levels of the Ifn-α4 and Ifn-β genes in BMDCs 5 hrs after co-incubation with PSM, free antigen, or PSM/OVA antigen. […] Data are presented as mean±S.D.; *, P <0.05, **, P <0.01 (see also FIG. 9A and FIG. 9B);
# FIG. 4A, FIG. 4B, FIG. 4C, FIG. 4D, FIG. 4E, FIG. 4F, FIG. 4G, FIG. 4H, FIG. 4I, and FIG. 4J show TRIF and MAVS mediated PSM induced interferon type I (IFN-I) activation. FIG. 4A, FIG. 4B, FIG. 4C, and FIG. 4D illustrate PSM-induced changes of Ifn-α4 and Ifn-β gene expression in BMDCs infected with lentiviruses carrying shRNAs targeting the indicated genes. FIG. 4E, FIG. 4F, FIG. 4G, and FIG. 4H illustrate PSM-induced changes of Ifn-α4 and Ifn-β gene expression in BMDCs isolated from wild-type or gene knockout mice. […] FIG. 4J is a schematic view of PSM-induced signaling pathway that mediates IFN-I activation. Data are presented as mean±S.D.; *, P <0.05, **, P <0.01; (see also FIG. 10A, FIG. 10B, FIG. 10C, FIG. 10D, FIG. 10E, and FIG. 10F);
# FIG. 10A, FIG. 10B, FIG. 10C, FIG. 10D, FIG. 10E, and FIG. 10F show PSM induced activation of IFN-I signaling in DCs. […]
# Real-Time PCR. […] The expression of individual genes was calculated by a ΔΔCT method, and normalized to the expression of β-actin. […]
# [2] = tested on: OVA-specific B3Z CD8 T cells; assay: In vitro antigen presentation assay, IL-2 production by B3Z cells; details: DCs treated with inhibitor before co-incubation with soluble OVA
# Protocol: In Vitro Antigen Presentation Assay. The in vitro antigen presentation assay was performed as previously described (Mukai et al., 2011). Briefly, DC2.4 cells or BMDCs isolated from C57BL/6 mice or TAP^−/− mice were seeded in a 96-well flat-bottom culture plates at a density of 2×10^5 cells/well, and cultured for 12 hrs at 37° C. Each well was washed once with PBS, and then the cells were pulsed with soluble OVA, PSM/OVA, OVA-derived MHC class I epitope peptide [OVA257-264; SIINFEKL (SEQ ID NO:1)], or MHC class II epitope peptide [OVA323-339; ISQAVHAAHAEINEAGR (SEQ ID NO:2); Peptide 2.0] for indicated time points, and immediately fixed with 1% paraformaldehyde. The cells were then co-cultured with 2×10^5 B3Z cells or 2×10^5 DOBW cells for 18 hrs at 37° C. The response of stimulated B3Z or DOBW cells was assessed by determining the amount of IL-2 released into the culture medium using a murine IL-2 ELISA KIT (Ebioscience, San Diego, Calif., USA). […]
# T-cell response to antigen cross-presentation of PSM-loaded OVA (PSM/OVA) was next assessed in DCs using an in vitro antigen presentation assay. […] It was subsequently determined whether PSM packaging could induce sustained antigen presentation. […]
# [3] = tested on: DCs (DC2.4 cells, BMDCs); assay: DC uptake of PSM/FITC-OVA in cell culture
# From the text: FIG. 1A, FIG. 1B, FIG. 1C, FIG. 1D, FIG. 1E, FIG. 1F, and FIG. 1G show PSM-loaded antigen was efficiently internalized by dendritic cells (DCs) through phagocytosis and macropinocytosis. […] Upper panel, DC2.4 cells; lower panel, bone-marrow-derived dendritic cells (BMDCs). Scale bar, 25 μm. FIG. 1B is a representative transmission electron microscopy (TEM) image showing the vesicular structure around a PSM/OVA particle inside a DC. Upper panel magnification=5,000×; lower panel magnification=50,000×. Upper panel scale bar=4 μm; lower panel bar=0.5 μm. […] The DCs were extensively washed after priming with 5 μg/mL soluble peptide or PSM/peptides, and either immediately co-incubated with B3Z cells (0 hrs), or cultured for 18 to 30 hrs before T-cell co-incubation; Data are presented as mean±S.D.; *, P <0.05, **, P <0.01; (See also FIG. 7A-FIG. 7E);
# Confocal Laser Scanning Microscopy. DC2.4 cells or BMDCs were seeded on eight-well chamber slides at a density of 1×10^5 cells/well and cultured for 24 hrs at 37° C. Each well was washed twice with PBS, and the cells were pulsed with FITC-OVA or PSM/FITC-OVA for 20 min. Cells were washed twice with PBS and incubated for an additional 30 min, 1, 3, or 6 hours in culture medium at 37° C. […] The samples were embedded with Prolong® Gold anti-fade reagent with DAPI (Invitrogen) and analyzed by confocal laser scanning microscopy (Olympus IX81). […]
# [4] = tested on: DCs; assay: Intracellular antigen trafficking by confocal microscopy
# Protocol: FIG. 2A, FIG. 2B, and FIG. 2C show antigen presentation of PSM-loaded OVA. FIG. 2A illustrates subcellular transport of antigens. DCs were incubated with PSM/FITC-OVA for 0.5 hrs, and then washed extensively to remove unbound particles. The cells were cultured for an additional 0.5 hr, 1 hr, 3 hrs, or 6 hrs before fixation, followed by immunostaining with antibodies recognizing specific organelles (EEA1 for early endosome; Rab7 for late endosome; TR for recycling endosome; and KDEL for the ER). Scale bar=25 μm. […] Peptide I (100 ng/mL) served as the positive control. […] BMDCs were incubated with OVA or PSM/OVA for 16 hrs, followed by harvest and labeling with the anti-CD11c antibody identifying DCs and the 25D1.16 antibody recognizing OVA257-264/H-2K^b complex on DC surface. Percentages of 25D1.16-staining positive populations in DCs are shown in red numbers. Data are presented as mean±S.D; *, P <0.05, **, P <0.01 (see also FIG. 8A, FIG. 8B and FIG. 8C);
# Confocal Laser Scanning Microscopy. DC2.4 cells or BMDCs were seeded on eight-well chamber slides at a density of 1×10^5 cells/well and cultured for 24 hrs at 37° C. Each well was washed twice with PBS, and the cells were pulsed with FITC-OVA or PSM/FITC-OVA for 20 min. […] The samples were embedded with Prolong® Gold anti-fade reagent with DAPI (Invitrogen) and analyzed by confocal laser scanning microscopy (Olympus IX81).
Compound,Effect of inhibitor on IFN-I induction by PSM [1],Effect of inhibitor pre-treatment on particle internalization [3],further results
O=C(NCCCNc1nc(Nc2cccc(NC(=O)N3CCCC3)c2)ncc1I)c1cccs1 [BX795],markedly inhibited IFN-I induction,–,–
CC(C)C[C@@H](C=O)NC(=O)[C@H](CC(C)C)NC(=O)[C@H](CC(C)C)NC(=O)OCc1ccccc1 [MG-132] (Cbz-Leu-Leu-Leu-aldehyde),–,–,Effect on class I antigen presentation of soluble OVA [2]: completely blocked
N=C(N)NC(=O)c1nc(Cl)c(N)nc1N [amiloride],–,significantly decreased particle internalization,–
C=C1[C@@H](C)[C@H]2[C@H](Cc3ccccc3)NC(=O)[C@]23[C@H](OC(C)=O)/C=C/[C@@](C)(O)C(=O)[C@@H](C)C/C=C/[C@H]3[C@@H]1O [cytochalasin D],suppressed IFN-I induction by PSM,significantly decreased particle internalization,–
free FITC-OVA: free FITC-conjugated ovalbumin,–,–,Signal inside DCs at 6 hrs [4]: very weak signal by 6 hour
